Data on 3 compounds can be found in patent publication US8969395B2, “Triterpenoid derivatives useful as antiproliferative agents” (Universidade de Coimbra, priority 2009, dated 2015).

Assay [1] deals with Chang liver (human normal liver cells). Put plainly: Cytotoxic activity against non-tumoral cell line, MTT assay. Conditions: 72 h, mean ±SD. In kind it is cell-based. As to the method:
The cytotoxic of compounds of formulas (I) and (II) 14-50 was assessed towards human cancer (HepG2, HeLa and Jurkat) cell lines (Table 3 below). Compounds presented on Table 4 were also tested against a non-tumoral liver cell line (Chang liver). The cell viability of HeLa, HepG2 and Chang liver cells was determined by the MTT assay. Briefly, exponentially growing cells were plated in 96-well plates at a density of 1×10^3, 8×10^3 and 5×10^3 cells/well respectively and incubated for 24 h before treatment. The grown medium was replaced with one contained the tested compounds dissolved in DMSO (final DMSO concentration <0.1%) at different concentrations, in triplicate wells, and cells were incubated for 72 h. After incubation with the compounds, the medium was removed and MTT solution (0.5 mg/ml, 100 μl) was added to each well and the plates were incubated again for 1 h. DMSO (100 μl) was then added to dissolve the formazan crystals and the plates were immediately read at 550 nm on an ELISA plate reader (Tecan Sunrise MR20-301, TECAN, Austria). For the Jurkat cells, the cell viability was determined by the XTT assay. Briefly, exponentially growing cells were plated in 96-well plates at a density of 5.5×10^3 cells/well, treated with different concentrations of compounds in triplicate and incubated for 72 h. After incubation with the compounds the XTT labeling mixture (100 μl) were added to each of the wells and after a 4 h incubation period the plates were read at 450 nm on an ELISA plate reader. […] Known for its cytotoxic activity, betulinic acid 2 was used as a positive control in this experimentation. […] All the IC50 results represent an average of a minimum of three experiments and were expressed as means±standard deviation (SD).
(In general: Tetrazolium assays rely on reduction of a dye to a coloured formazan, in cell work by metabolically active cells.)

Assay [2] has as its system Chang liver (normal liver cell line). Briefly: Apoptosis, Annexin V-FITC/PI FACS, Chang liver. In kind it is cell-based, human. The settings on record: at the IC80 found for HepG2, FIG. 8. As to the method: Briefly, the same number of HepG2, HeLa, Jurkat and Chang liver cells as in the cell cycle assay were treated with compounds 20, 44, 46 and betulinic acid 2, as described above. Cells were collected washed once in ice-sold binding buffer (10 mM HEPES/NaOH, pH 7.4, 140 mM NaCl, 2.5 mM CaCl2) and ressuspended in the same buffer (95 μl) at a maximum, of 8×10^5 cells/ml. Annexin V-FITC conjugate (1 μg/ml) was added and incubated for 30 min at room temperature in darkness. Just before FACS analysis, cells were stained with 20 μl of […]. Approximately 1×10^4 cells were analysed for each histogram and experiments were performed three times with triplicates per experiment. FACS analysis using Annexin V-FITC staining and PI accumulation was used to differentiate early apoptotic cells (Annexin V^+ and PI^−) from necrotic or late apoptotic cells (Annexin V^+ and PI^+). […] In comparison with untreated controls, compound 44 treatment of HepG2 cells generated apoptosis in 53% of cells (42% of early apoptosis and 11% of late apoptosis), compound 46 generated apoptosis in 38% of cells (28% of early apoptosis plus 10% late apoptosis) and compound 20 induced apoptosis in 29% of cells (22% of early apoptosis plus 7% late apoptosis) (FIG. 8).

Assay [3] has as its system HeLa (human cervical adenocarcinoma). Put plainly: Cytotoxic activity, MTT assay, HeLa. Conditions: 72 h, mean ±SD. Format: cell-based.
Assay [4] has as its system HepG2 cells. Put plainly: Cell cycle analysis by flow cytometry (FACS, PI), HepG2. Format: cell-based, human. Conditions: for Phase of cell cycle (% of cells) G0/G1 / Phase of cell cycle (% of cells) G2/M / Phase of cell cycle (% of cells) S: HepG2, compound at its IC50, 72 h; for decrease in the percentage of cells in the G0/G1 phase / increase in the population in S phase: HepG2, with respect to untreated cells, at IC50, 72 h. As to the method: The effects on the cell cycle of some of these compounds were assessed through flow cytometry by using a fluorescence-activated cell sorter (FACS) (Table 5 below). For this assay 2.3×10^5 HepG2 cells/well, 2.9×10^4 HeLa cells/well, 1.6×10^5 Jurkat cells/well and 1.4×10^5 Chang liver cells/well were plated in 6 well plates with 2 ml of medium. The number of cells was determined by the relationship number of cells/area wells, considering the number of cells that were cultured in 96-well plates. […] Chang liver cells were incubated with compounds 20, […] at concentrations corresponding to the IC80 determined for HepG2 at 72 h. Following 72 h. of incubation, cells were harvested by mild trypsinization, collected by centrifugation and stained in ice-cold Tris-buffered saline (TBS), containing 1 mg/ml PI, 10 mg/ml RNAse free of DNAase and 0.1% Igepal CA-630 for 1 h at 4° C. FACS analysis was carried out at 488 nm in an Epics XL flow cytometer (Coulter Corporation, Hialeah, Fla.). Data from 8×10^3 cells were collected and analyzed using Multicycle program (Phoenix Flow Systems, San Diego, Calif.). All experiments were performed three times with three replicates per experiment. […] To explore the selectivity of the effect on tumor cells, we also tested compounds 20, 44 and 46 in a non-malignant cell line. Chang liver cells were treated with the compounds at the IC80 values determined for HepG2 after 72 h of incubation and no effect was observed, indicating a selective effect of these agents (Table 5 below).
Background: In flow cytometry, cells or beads pass a laser one at a time.

Assay [5] concerns Jurkat (human leukemia). Briefly: Cytotoxic activity, XTT assay, Jurkat. The settings on record: 72 h, mean ±SD. Format: cell-based. Summed up:
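HepG2, HeLa and Chang liver cells (8×10^3, 1×10^3, 5×10^3 cells/well) pre-grown 24 h, treated 72 h in triplicate (DMSO <0.1%), MTT 0.5 mg/ml 1 h, read 550 nm. Jurkat (5.5×10^3 cells/well) treated 72 h, XTT 4 h, read 450 nm. IC50 as mean±SD of at least three experiments.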

As for `C=C(C)[C@@H]1CC[C@]2(CO)CC[C@]3(C)[C@H](CC[C@@H]4[C@@]5(C)CC[C@H](OC(=O)n6ccnc6)C(C)(C)[C@@H]5CC[C@]43C)[C@@H]12` [Compound 20, 28-hydroxy-lup-20(29)-en-3β-yl-1H-imidazole-1-carboxylate], the concentration for half-maximal inhibition (IC50) (in general, the concentration that gives 50% inhibition) in assay [1] is 60.7 ± 3.8 µM. For the same compound, the “apoptosis induction in normal liver cell line” value (shortened to “apoptosis induction”) in assay [2] was “no effect”. For the same compound, 3 ± 0.2 µM corresponded to half-maximal inhibition in assay [3] (IC50). For the same compound, in assay [4], the “Phase of cell cycle (% of cells) G0/G1” value is listed as 49.4 ± 1.2 % of cells, the “Phase of cell cycle (% of cells) G2/M” value was 14.5 ± 0.8 % of cells, the “Phase of cell cycle (% of cells) S” value was 36.1 ± 0.8 % of cells and the “decrease in the percentage of cells in the G0/G1 phase” value (“decrease in the percentage of cells” for short) was 12%. For the same compound, the “increase in the population in S phase” value in assay [4] is reported as 17%. In addition, in assay [5], the IC50 stood at 11.1 ± 1.3 µM.
Regarding `C=C(C)[C@@H]1CC[C@]2(C(=O)n3ccnc3)CC[C@]3(C)[C@H](CC[C@@H]4[C@@]5(C)CCC(=O)C(C)(C)[C@@H]5CC[C@]43C)[C@@H]12` [Compound 44, 28-(1H-imidazol-1-yl)-lup-20(29)-en-3,28-dione], it took 48.8 ± 2.8 µM to reach half-maximal inhibition in assay [1] (IC50). In addition, the “apoptosis induction” value in assay [2] is “no effect”. This compound displayed an IC50 in assay [3] of 2 ± 0.3 µM. Further, in assay [4], the “Phase of cell cycle (% of cells) G0/G1” value was 45.6 ± 2.1 % of cells, the “Phase of cell cycle (% of cells) G2/M” value is reported as 14.9 ± 1.4 % of cells, the “Phase of cell cycle (% of cells) S” value is 39.6 ± 3.6 % of cells and the “decrease in the percentage of cells” value is 16%. Moreover, the “increase in the population in S phase” value in assay [4] is 20%. Besides, the midpoint of inhibition in assay [5], the IC50, lay at 1.4 ± 0.2 µM.
The compound `C=C(C)[C@@H]1CC[C@]2(C(=O)n3ccnc3)CC[C@]3(C)[C@H](CC[C@@H]4[C@@]5(C)C=CC(=O)C(C)(C)[C@@H]5CC[C@]43C)[C@@H]12` [Compound 46, 28-(1H-imidazol-1-yl)-lup-1,20 (29)-dien-3,28-dione] showed a 50% inhibitory concentration (IC50) in assay [1] of 55.9 ± 4.6 µM. For the same compound, the “apoptosis induction” value in assay [2] is given as “no effect”. This compound also registered an IC50 in assay [3] of 3 ± 0.2 µM. Moreover, in assay [4], the “Phase of cell cycle (% of cells) G0/G1” value is listed as 54.7 ± 1.5 % of cells, the “Phase of cell cycle (% of cells) G2/M” value is reported as 14.3 ± 1.0 % of cells, the “Phase of cell cycle (% of cells) S” value is 30.7 ± 0.6 % of cells and the “decrease in the percentage of cells” value stood at 7%. Further, the “increase in the population in S phase” value in assay [4] was 12%. Besides, the IC50 in assay [5] worked out at 2.3 ± 0.3 µM.
